Assay results from ChEMBL document CHEMBL1158810, “Efficiency of foam fractionation for the enrichment of nonpolar compounds from aqueous extracts of plant materials” (J Nat Prod, 2005).

Assay: Octanol-water partition coefficient, log POW of the compound
Assay type: physicochemical
Conditions: not given

Row | logP | SMILES
1 | 1.15 | COc1cc(/C=C/C(=O)CC(=O)/C=C/c2ccc(O)c(OC)c2)ccc1O [CURCUMIN]

Same assay, conditions: read-out: logP

Row | SMILES | logP
2 | CC(C)=CCC1=C(O)C(C(=O)C(C)C)=C(O)[C@](O)(CC=C(C)C)C1=O | 2.92
3 | CC1=C(/C=C/C(C)=C/C=C/C(C)=C/C=C/C=C(C)/C=C/C=C(C)/C=C/C2=C(C)CCCC2(C)C)C(C)(C)CCC1 [BETA CAROTENE] | 4.19
4 | O=C(O[C@@H]1Cc2c(O)cc(O)cc2O[C@H]1c1cc(O)c(O)c(O)c1)c1cc(O)c(O)c(O)c1 [GALLOCATECHIN GALLATE] | 0.12
5 | Oc1cc(O)c2c(c1)O[C@H](c1ccc(O)c(O)c1)[C@H](O)C2 [(-)-EPICATECHIN] | 0.67
6 | O=C(O[C@@H]1Cc2c(O)cc(O)cc2O[C@@H]1c1cc(O)c(O)c(O)c1)c1cc(O)c(O)c(O)c1 [EPIGALOCATECHIN GALLATE] | 0.09
7 | CC(C)=CCC1=C(O)C(C(=O)CC(C)C)=C(O)[C@](O)(CC=C(C)C)C1=O | 3.01
8 | Oc1cc(O)c2c(c1)O[C@H](c1ccc(O)c(O)c1)[C@@H](O)C2 [CIANIDANOL] | 0.53
9 | O=C(/C=C/c1ccc(O)cc1)CC(=O)/C=C/c1ccc(O)cc1 [BISDEMETHOXYCURCUMIN] | 0.85
10 | Oc1cc(O)c2c(c1)O[C@H](c1cc(O)c(O)c(O)c1)[C@H](O)C2 [EPIGALLOCATECHIN] | 0.13

Second part, the compound after the results:

Row | logP | SMILES
11 | -0.21 | COc1ccc([C@@H]2CC(=O)c3c(O)cc(O[C@@H]4O[C@H](CO[C@@H]5O[C@@H](C)[C@H](O)[C@@H](O)[C@H]5O)[C@@H](O)[C@H](O)[C@H]4O)cc3O2)cc1O [HESPERIDIN]
12 | 3.89 | CC1=C[C@H](O)CC(C)(C)[C@H]1/C=C/C(C)=C/C=C/C(C)=C/C=C/C=C(C)/C=C/C=C(C)/C=C/C1=C(C)C[C@@H](O)CC1(C)C [LUTEIN]
13 | 0.07 | O=C(O[C@@H]1Cc2c(O)cc(O)cc2O[C@@H]1c1ccc(O)c(O)c1)c1cc(O)c(O)c(O)c1 [EPICATECHIN GALLATE]
14 | 1 | COc1cc(/C=C/C(O)=C/C(=O)/C=C/c2ccc(O)cc2)ccc1O [DEMETHOXYCURCUMIN]
15 | -0.15 | C[C@@H]1O[C@@H](O[C@H]2[C@H](Oc3cc(O)c4c(c3)O[C@H](c3ccc(O)cc3)CC4=O)O[C@H](CO)[C@@H](O)[C@@H]2O)[C@H](O)[C@H](O)[C@H]1O [NARINGIN]
